System: U251MG glioma cells
Assay: In vivo efficacy in athymic nude mice with subcutaneous U251MG glioma
Conditions: tumor-bearing mice; TMZ alone orally 64 mg/kg/day for 4 days, no T cells (Group III)
Protocol: The in vivo efficacy of the IL13E13K.R109K-2A-P140KMGMT construct was tested in mice using the viral particles generated as described in Example 2. Fifty athymic nude mice were injected subcutaneously (left flank) with U251MG glioma cells (40 mice; Groups I-IV) or PBS (10 mice). Four days after glioma implantation, 3 groups of mice (Groups I, II and III, 10 mice/group) were treated orally with TMZ (64 mg/kg/day by oral gavage) for 4 days. On the 5th day after glioma implantation, the 3 groups of mice that had been treated orally with TMZ were treated as follows: Group I: an intra-tumoral injection of the IL13E13K.R109KCAR-2A-P140KMGMT construct (TMZ-resistant); Group II: the IL13 IL13E13K.R109K construct with no MGMT (TMZ sensitive); Group III: treatment with PBS only (no injection of T cells). Group IV received no T cells or TMZ treatment. The mice were monitored for visual tumor growth, behavioral changes, and morbidity until day 90 after injection of the T cells at which time the mice were sacrificed as required by IACUC restrictions.

`Cn1nnc2c(C(N)=O)ncn2c1=O` [TMZ, temozolomide] was tested, and the median survival time was 36 days and the survival rate was 20%.
